Measurements published in patent US20120020930A1, “METHODS FOR THE PREPARATION OF ADIPOSE DERIVED STEM CELLS AND UTILIZING SAID CELLS IN THE TREATMENT OF DISEASES” (CELLERIX, S.A., priority 2008, published 2012).
Entries after “also recorded” stand apart in the source; their conditions may differ.

Legend:
ASC [1] = experiment: IDO expression in ASC upon stimulation with pro-inflammatory mediators (RT-PCR and Western Blot); format: cell-based; conditions: TNF-α at 50 ng/mi
ASC [2] = experiment: Transwell migration of ASC towards SDF-1 in the presence of Diprotin A; format: cell-based, human; conditions: Diprotin A 0, 1, 5, 10 mM on upper surface; SDF-1 50 μM in well; 24 h; crystal violet stained cells counted; FIG. 1
Description: ASC were obtained from lipoaspirates obtained from human adipose tissue from healthy adult donors. Lipoaspirates were washed twice with PBS, and digested at 37° C. for 30 minutes with 0.075% collagenase (Type I, Invitrogen, Carlsbad, Calif.) in PBS. The digested sample was washed with 10% of fetal bovine serum (FBS), treated with 160 mM CINH4, suspended in culture medium (DMEM containing 10% FBS) and filtered through a 40-μm nylon mesh. Cells were seeded (2-3×10^4 cells/cm^2) onto tissue culture flasks and expanded at 37° C. and 5% CO2, changing the culture medium every 7 days. Cells were passed to a new culture flask (1,000 cells/cm^2) when cultures reached 90% of confluence. Cells were phenotypically characterized by their capacity to differentiate into chondro-, osteo-, and adipo-genic lineages. A pool of 6 ASC samples from different donors (culture passage 4-6) was used.
ASC (10^4 cells) were seeded onto the upper surface of a Transwell permeable support insert with a pore size of 8 μm. The permeable supports were inserted into a 24 well plate. […]
Stained cells (i.e. those having migrated to the underside of the permeable support) were then counted. Total number of counted cells per experimental condition is shown (two inserts per condition were counted).

Substance	IDO expression (ASC [1])	number of migrating cells (ASC migration to the underside of the permeable support) (ASC [2])
TNF-α	did not induce IDO expression	
Ile-Pro-Ile [Diprotin A]		increased migration of cells; also recorded: increased in proportion to the amount of Diprotin A
